Laboratory results: patent US8158621B2, “Methods of treating or preventing autoimmune diseases with 2,4-pyrimidinediamine compounds” (Rigel Pharmaceuticals, Inc., priority 2002, dated 2012)
“And” between values parts separate entries of the source, which are not always exact repeats. Identical values can stand only once. Like-named read-outs stand apart in the source and are kept apart here. Blank lines part the entries; values can stand above or below the molecule they belong to.

How the values were obtained:
[1] = tested on: cultured human mast cells (CHMC); assay: CHMC low cell density IgE activation: tryptase assay; assay type: cell-based
How it was run: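 CHMC resuspended in pre-warmed MT buffer at 1000-1500 cells/well (donor-dependent) and preincubated 1 hr at 37° C, then stimulated with anti-IgE for 30 min at 37° C; unstimulated wells got MT alone. Supernatant tryptase activity read with tryptase substrate after 30 min at room temperature.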

[2] = tested on: cultured human mast cells (CHMC); assay: CHMC low cell density ionomycin activation: tryptase assay; assay type: cell-based
[3] = tested on: cultured human mast cells (CHMC); assay: CHMC high cell density IgE activation: hexos; assay type: cell-based
Experimental: (§1) After sensitizing, cells are counted, pelleted (1000 rpm, 5-10 minutes), and resuspended at 1-2 ×10^6 cells/ml in MT buffer. Add 100 ul of cell suspension to each well and 100 ul of compound dilutions. The final vehicle concentration is 0.5% DMSO. Incubate at 37° C. (5% CO2) for 1 hour. After 1 hour of compound treatment, stimulate cells with 6× anti-IgE. Mix wells with the cells and allow plates to incubate at 37° C. (5% CO2) for one hour. After 1 hour incubation, pellet cells (10 minutes, 1000 RPM) and collect 200 ul per well of the supernatant, being careful not to disturb pellet. Place the supernatant plate on ice. During the 7-hour step (see next) perform tryptase assay on supernatant that had been diluted 1:500. Resuspend cell pellet in 240 ul of CM media containing 0.5% DMSO and corresponding concentration of compound. Incubate CHMC cells for 7 hours at 37° C. (5% CO2). After incubation, pellet cells (1000 RPM, 10 minutes) and collect 225 ul per well and place in −80° C. until ready to perform ELISAS. ELISAS are performed on appropriately diluted samples (determined empirically for each donor cell population so that the sample measurement falls within the standard curve) following the supplier's instructions.
Add 50 uL of BMMC cell supernatant (see above) to the hexoseaminidase substrate, place at 37° C. for 30 minutes and read the plate at 5, 10, 15, and 30 minutes on a spectrophotometer.

[4] = tested on: cultured human mast cells (CHMC); assay: CHMC high cell density IgE activation: tryptase; assay type: cell-based
Experimental: as §1

[5] = tested on: cultured human mast cells (CHMC); assay: CHMC high cell density IgE activation: histamine; assay type: cell-based
Experimental: as §1

[6] = tested on: cultured human mast cells (CHMC); assay: CHMC high cell density IgE activation: LTC4; assay type: cell-based
Experimental: as §1

[7] = tested on: cultured human mast cells (CHMC); assay: CHMC high cell density IgE activation: TNFalpha; assay type: cell-based; conditions: read-out: CHMC high density TNF-alpha
Experimental: as §1

[8] = tested on: Human Jurkat T-cells (clone N); assay: Jurkat T-cell activation (anti-TCR, CD69 upregulation); assay type: cell-based
How it was run: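 Jurkat cells in RPMI + 5% FBS preincubated with compound 1 h at 37 °C, then stimulated with anti-TCR C305 at 500 ng/ml for 20 h. CD69 surface expression stained with anti-CD69-APC and read by flow cytometry; IC50 versus solvent-only control.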

[9] = tested on: Primary T-cells; assay: Primary T-cell cytokine production (αCD3/αCD28): IL-2; assay type: cell-based, human; conditions: read-out: 1° T-Cell IL2 IC50
Experimental: 2E8-4E8 PBMC or proliferating T cells grown in rIL-2 from healthy human donors were suspended in PBS were spun down (1500 rpm, 8-10 minutes) and resuspended in 100 ml RPMI Complete media (1% Pen-Strep, 1% L-Glutamine, 10 mM HEPES). The cells were plated in T175 flasks (37° C., 5% CO2) and monocytes were allowed to adhere for 2-3 hours. After monocyte attachment, non-adherent cells were harvested, counted by hemocytometer, washed several times with PBS then resuspended in Yssels Complete Media (Modified IMDM Media with 1% Human AB Serum, 1% Pen-Strep, 1% L-Glutamine, 10 mM HEPES) at […]. 90 uL of the cell dilution were then added to compounds diluted to 2× in Yssel's media and incubated for 30 minutes at 37° C. (5% CO2). After this preincubation step the compound/cell mixture was transferred to stimulation plates, as described below.
Stimulation plates were prepared by coating 96 well plates with 5 μg/ml αCD3 (BD PharMingen, Catalog #555336)+10 μg/ml αCD28 (Beckman Coulter, Catalog #IM1376) in PBS (no Ca^2+/Mg^2+) at 37° C. (5% CO2) for at 3-5 hours. After incubation with the stimulation antibodies, the cocktail was removed and the plates washed 3 times with PBS prior to addition of the primary T cell/compound mixture.
The compound/cell mixture was transferred to the stimulation plates and incubated for 18 hr at 37° C. (5% CO2). After the cell stimulation, ˜150 μl supernatant were transferred from each well into 96-well filter plates (Coming PVDF Filter Plates) spun down (2000 rpm, 2-3 minutes) and either used immediately for ELISA or LUMINEX measurements or frozen down at −80° C. for future use.
IL-2 ELISAs were performed using the Quantikine Human IL-2 ELISA kit (R&D Systems, Catalog # D2050) as described by the manufacturer and absorption was measured on a spectrophotometer at 450 nm wavelength. Blank values were substracted and absorbances were converted to pg/mL based on the standard curve.
Luminex immunoassay multiplexing for TNF, IL-2, GMSCF, IL-4 and IFNg was performed essentially as described by the manufacturer (Upstate Biotechnology). Essentially 50 uL of sample was diluted into 50 uL assay diluent and 50 uL incubation buffer, then incubated with 100 uL of the diluted detection antibody for 1 hr at RT in the dark. The filter plate was washed 2× in Wash Buffer, then incubated with 100 uL of the diluted secondary reagent (SAV-RPE) for 30 min at RT in the dark. Finally the plates were washed 3 times and bead identification and RPE fluorescent measured by the Luminex instrument.
Varied concentrations of compound were compared to solvent only to determine the inhibition of T-cell activation IC50 of each compound.

[10] = tested on: IgE-induced degranulation of tissue mast cells; assay: Mouse model of passive cutaneous anaphylaxis (PCA); assay type: in vivo; conditions: positive controls
Experimental: This model provides a direct measure of IgE-induced degranulation of tissue mast cells. In this model, IgE primed animals are exposed to an allergen challenge, and the change in permeability of dermal vasculature that results from histamine release from mast cells is measured by change in the amount of dye leakage into surrounding tissue. Inhibition of mediator release by compounds that modulate mast cell degranulation is easily measured by extracting the dye from the tissue.
In the PCA assay mice are passively sensitized by intradermal injection with anti-dinitrophenol (DNP) IgE antibodies (Day −1). At predetermined times animals are treated with the test agent (Day 0). The modulatory effect of the agent on cutaneous mast cell degranulation is measured following intravenous injection of DNP conjugated to human serum albumin (HSA-DNP), together with Evans blue dye. The resulting cross-linking of the IgE receptor and subsequent mast cell degranulation-induced increase in vascular permeability is determined by measuring the amount of dye extravasation into the tissue. Dye is extracted from the tissue by formamide, and the absorbance of this extract is read at 620 nm.

[11] = tested on: Primary human B-cells; assay: Primary B-cell activation (α-IgM, CD69 upregulation); assay type: cell-based; conditions: read-out: 1° B-Cell CD69 IC50
Experimental: Primary human B-cells were isolated from buffy coat, the white cell layer that forms between the red cells and the […] when anti-coagulated blood is centrifuged, or from fresh blood using CD19-Dynal® beads and a FACS. Buffy coat was obtained from the Stanford Medical School Blood Centre, prepared on the same day by the blood bank, stored and transported cold (with ice). The buffy coat (approx 35 mL) was placed in a 500 mL conical sterile centrifuge pot and cooled on ice, then diluted with cold PBS containing 0.2% BSA (Sigma: A7638) and sodium citrate (0.1%, Sigma: S-5570) (P—B—C) to a total volume of 200 mL and mixed gently. Fresh blood was collected from donors in 10 mL vacutainers containing heparin (1 vacutainer collects approximately 8.5 mL blood). The blood was cooled on ice, transferred into 50 mL falcon tubes (20 mL/tube) or a 500 mL conical sterile centrifuge pot, and diluted with an equal volume P—B—C.
25 mL diluted blood or buffy coat was layered onto 15 mL cold ficoll and placed back on ice. The ficoll layered blood was centrifuged (Beckman GS-6R) for 45 minutes at 2000 rpm, 4° C. to separate the Peripheral Blood Mononuclear Cells (PBMC) from the Red Blood Cells (RBC) and granulocytes. The top aqueous layer was then aspirated until 1 inch above the PBMC layer. The PBMCs were transferred from every 2 ficoll tubes into one clean 50 mL falcon tube (=approx 10 mL/tube). The transferred PBMCs were diluted 5× with icecold PBS with 0.2% BSA (P—B) and centrifuged for 20 min at 1400 rpm and 4° C. The supernatant (this may be cloudy) was then aspirated and the PBMCs resuspended into 25 mL P—B and the cells counted (using a 1:5 dilution) and kept on ice.
The cells were then positively selected using anti-CD 19 antibody coupled to magnetic beads (Dynal®) as per manufacturer's instructions. The approximate required amount of CD19-Dynal® beads (CD19-coated dyna beads M-450 (pabB), Dynal®) was calculated by estimating the number of B-cells as 5% of PBMCs counted and adding approximately10 beads per cell from the bead stock (4×10^8 beads/mL). The CD19-Dynal® beads were washed 2× in P—B in a 5 mL tube using the Dynal® magnet, then added into the suspended PBMCs. This mixture was then passed through the Dynal® magnet and washed several times to separate the bead-bound cells.
After separation, the beads and antibody were removed using Dynal® CD19-DETACHaBEAD® for 45 min at 30° C. Yield is typically 2×10^7 B-cells per buffy coat. B-cells were washed and resuspended as 1E6 cells/mL in RPMI1640+10% FBS+Penicillin/[…]+1 ng/mL IFNα8. Cells were rested overnight at 37° C. and 5% CO2.
The following day, cells were washed and resuspended in RPMI+2.5% FBS to 1×10^6 cells/mL. Cells were then aliquoted into a V-bottom 96-well plate (Corning) at 65 uL cells per well. By robot, 65 uL of a 2× compound was added to the cells with final concentration of DMSO at 0.2%, and incubated for 1 hr at 37° C. Cells were then stimulated with 20 uL 7.5× α-IgM from Jackson laboratories (final 5 ug/mL) for 24 hrs. At day 3, the cells were spun down and stained for CD69 and analyzed by FACS gated on the live cells (by light scatter).
Varied concentrations of compound were compared to solvent only to determine the inhibition of B-cell activation IC50 of each compound.

[12] = molecular target: T1, Syk kinase (Homo sapiens, UniProt P43405); assay: Syk kinase biochemical fluorescence polarization assay; conditions: isolated Syk kinase, fluorescence polarization, 4 uM ATP
T1 construct: purchased Upstate, Lake Placid NY

[13] = Mouse Reverse Passive Arthus reaction (RPA reaction); assay type: in vivo, C57BL/6 mice; conditions: oral, 200 mg/kg
Experimental: In this model system, test compounds are administered at several timepoints prior to administration of Abs and Ags. A solution of rabbit anti-OVA IgG (50 μg in 25 μl/mouse) is injected intradermally, and immediately following is an intravenous injection of chicken egg albumin (20 mg/kg of body weight) in a solution containing 1% Evans blue dye. The degree of edema and hemorrhage is measured in the dorsal skin of C57BL/6 mice using the Evan's Blue dye as an indicator of local tissue damage. Purified polyclonal rabbit IgG is used as a control.
Pretreatment time, in which the test compounds are administered prior to Ab/Ag challenge, depends on the pharmacokinetic (PK) properties of each individual compound. Four hours after induction of Arthus reaction, mice are euthanized, and tissues are harvested for assessment of edema.

[14] = Low Density CHMC, anti-IgE activation, tryptase release, read-out: CHMC anti-IgE Tryptase IC50
[15] = Low Density CHMC, ionomycin activation, tryptase release, read-out: CHMC Ionomycin Tryptase IC50

Compound: CNC(=O)c1cc2cc(Nc3ncc(F)c(Nc4ccc5c(c4)OCCO5)n3)ccc2o1 [Compound R926496]
IC50 [1, 14]: 571 nM | IC50 [2, 15]: > 10000 nM | IC50 [3]: 429 nM | IC50 [4]: 533 nM | IC50 [5]: 809 nM | IC50 [6]: 414 nM | IC50 [7]: 622 nM | IC50 [8]: 4390 nM

Compound: CN(C)CCOC(c1ccccc1)c1ccccc1 [diphenhydramine, reference compound]
PCA response [10]: inhibit the PCA response

Compound: Cc1noc(COc2ccc(Nc3nc(Nc4ccc(OC(C)C)cc4)ncc3F)cc2)n1 [Compound R935144]
IC50 [8]: > 10000 nM | IC50 [9]: 13300 nM

Compound: CC1(C)Oc2ccc(Nc3nc(Nc4ccc5cc[nH]c5c4)ncc3F)cc2NC1=O [Compound R926982]
IC50 ([1]; low cell density, read-out: CHMC anti-IgE Tryptase): 120 nM | IC50 ([2]; low cell density, read-out: CHMC Ionomycin Tryptase): > 10000 nM | IC50 [12]: 28 nM | IC50 [11]: 394 nM

Compound: COC(=O)c1cc2cc(Nc3ncc(F)c(Nc4ccc(OC(C)C)cc4)n3)ccc2o1 [Compound R926704]
IC50 [1, 14]: 564 nM | IC50 [2, 15]: > 10000 nM | IC50 [3]: > 2000 nM | IC50 [4]: > 10000 nM | IC50 [5]: > 10000 nM | IC50 [6]: > 10000 nM | IC50 [7]: > 10000 nM | IC50 [8]: 9270 nM

Compound: CNC(=O)COc1cccc(Nc2ncc(F)c(Nc3ccc4c(c3)NC(=O)C(C)(C)O4)n2)c1 [Compound R940323]
inhibition of edema formation ([13]; 60 minutes prior to challenge): 32.4% | % inhibition to vehicle control Edema Size ± SEM ([13]; pretreatment time 0.5 hrs): 5.5 ± 9.3% | % inhibition to vehicle control Edema Size ± SEM ([13]; pretreatment time 1 hrs): 32.4 ± 13.0% and 32.4% | % inhibition to vehicle control Edema Size ± SEM ([13]; pretreatment time 2 hrs): 26.9 ± 11.2% | IC50 [8]: 557 nM | IC50 [11]: 110 nM

The next lines start with the values.

IC50 [8]: > 10000 nM | IC50 [9]: 36100 nM
Compound: Oc1cccc(Nc2nc(Nc3ccc(OCc4nc(-c5ccccc5)no4)cc3)ncc2F)c1 [Compound R935134]

IC50 [8]: 1480 nM | IC50 [9]: 1500 nM
Compound: CNC(=O)COc1cccc(Nc2ncc(F)c(Nc3ccc4cc[nH]c4c3)n2)c1 [Compound R926745]

IC50 ([8]; Homo sapiens, Jurkat): 8860 nM | IC50 ([11]; Homo sapiens, B-cell): 44000 nM
Compound: CCOc1ccc(Nc2nc(Nc3ccc4c(c3)OCCO4)ncc2F)cc1 [Compound R926213]

IC50 [12]: 17 nM | IC50 [11]: 1980 nM
Compound: COc1cc(Nc2ncc(F)c(Nc3ccc4c(c3)NC(=O)[C@H](C)O4)n2)cc(OC)c1 [Compound R908953]
